ChEMBL document CHEMBL5331047 (Eur J Med Chem, 2022)

How the values were obtained:
Neuraminidase = Neuraminidase (Influenza A virus (strain A/USSR/90/1977 H1N1), UniProt P03469, H274Y)
[1] = system: Neuraminidase (Influenza A virus (strain A/USSR/90/1977 H1N1)), P03469 [H274Y]; experiment: Induction of drug resistance in influenza A virus H1N1 expressing neuraminidase H274Y mutant assessed as reduction in susceptibility relative to control; assay type: functional; set-up: scale not given: the % may be the effect or the level left
[2] = Induction of drug resistance in influenza A virus H3N1 expressing neuraminidase N294S mutant assessed as reduction in susceptibility relative to control; assay type: functional; set-up: scale not given: the % may be the effect or the level left
[3] = Induction of drug resistance in influenza A virus H1N1 expressing neuraminidase I222R mutant assessed as reduction in susceptibility relative to control; assay type: functional; set-up: scale not given: the % may be the effect or the level left
[4] = Induction of drug resistance in influenza A virus H1N1 expressing neuraminidase S246N mutant assessed as reduction in susceptibility relative to control; assay type: functional; set-up: scale not given: the % may be the effect or the level left

Compound: CC(=O)N[C@@H]1[C@@H](N)CC(C(=O)O)=C[C@H]1OC1CCSC1 (stereo not given in full)
- IC50 (Neuraminidase): 68 nM

Compound: CCOC(=O)C1=C[C@@H](OC(CC)CC)[C@H](NC(C)=O)[C@@H](N)C1 [OSELTAMIVIR]
- Activity [1]: < 3.5%
- Activity [2]: <3.5%
- Activity [3]: <3.5%
- Activity [4]: <3.5%
